{"source": "BindingDB's records for doi:10.1016/0960-894X(95)00398-D", "about": "(1995)", "molecular_target": "Beta-2 adrenergic receptor (Rattus norvegicus) (UniProt P10608)", "sequence (P10608 whole entry, looked up)": "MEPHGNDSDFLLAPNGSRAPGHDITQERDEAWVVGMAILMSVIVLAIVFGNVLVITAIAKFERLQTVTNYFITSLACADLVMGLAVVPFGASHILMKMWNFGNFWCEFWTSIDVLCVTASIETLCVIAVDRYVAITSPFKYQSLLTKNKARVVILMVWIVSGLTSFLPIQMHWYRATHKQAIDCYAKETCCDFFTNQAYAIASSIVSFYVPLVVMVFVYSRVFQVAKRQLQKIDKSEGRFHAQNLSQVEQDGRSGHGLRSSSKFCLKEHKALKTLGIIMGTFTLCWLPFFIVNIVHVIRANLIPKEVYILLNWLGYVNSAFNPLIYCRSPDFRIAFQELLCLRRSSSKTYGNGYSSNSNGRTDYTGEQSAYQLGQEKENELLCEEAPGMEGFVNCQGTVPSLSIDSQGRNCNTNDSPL", "test": "Compound was evaluated for its binding affinity to beta-2 receptor in rat brain using [3H]- DHA radioligand assay"}
{"smiles": "COc1cccc2c1CCC[C@H]2CN(C)CCc1ccc2ccoc2c1", "note": "[A-80426]", "values": [{"measurement": "Ki", "value": 1740, "unit": "nM"}]}
